Measurements published in article PMC11981937 (Nature, 2025).

Key:
SARS-CoV (FFM1 strain) = experiment: microbe, parasite or virus in culture; type: cell-based; conditions: Severe acute respiratory syndrome coronavirus
HCoV-229E = experiment: microbe, parasite or virus in culture; type: cell-based
in vivo = conditions: Syrian golden, hamster; for concentration at 0.05 h / concentration at 1 h / concentration at 2 h / concentration at 4 h / concentration at 7 h / concentration at 24 h / concentration at 12 h / concentration at 0.5 h: female
MERS-CoV = experiment: microbe, parasite or virus in culture; type: cell-based; conditions: Middle East respiratory syndrome-related coronavirus, Huh-7, read-out: Median EC50
[1] = target: T1, purified recombinant M protein (Severe acute respiratory syndrome coronavirus 2, UniProt P0DTC5); type: binding, SARS-CoV-2; conditions: 5 µM compound
T1 construct: SARS-CoV-2 M protein (1–222, UniProt: P0DTC5); ALFA-tag (C); C-tag (EPEA) (C); made in house; host or cells: Expi293F cells (Invitrogen), transient transfection of a pcDNA3.4 construct

in vitro = conditions: rhesus monkey
MHV = MHV antiviral assay in Huh7 cells (luciferase); type: cell-based, mouse hepatitis virus; conditions: Murine coronavirus, Huh-7, Huh7, MHV (betaCoV), N=2
SARS-CoV-2 (B1 strain) = experiment: microbe, parasite or virus in culture; type: cell-based; conditions: Severe acute respiratory syndrome coronavirus 2; SARS-CoV-2 B1, in a variety of cell types
HCoV-NL63 = HCoV-NL63 CPE reduction assay in LLC-MK2 cells; type: cell-based
PDCoV = PDCoV antiviral CPE reduction assay in Huh7 cells; type: cell-based, porcine deltacoronavirus; conditions: Coronavirus HKU15, Huh-7, Huh7, PDCoV (deltaCoV), N=2
[2] = po, 50 mg/kg, individual animal

C[C@H]1Cn2ncc(C(=O)Nc3cccc(C#N)c3)c2C(=O)N1c1ccc(C(F)(F)c2ccccc2)cc1 [JNJ-9676, (S)-N-(3-cyanophenyl)-5-(4-(difluoro(phenyl)methyl)phenyl)-6-methyl-4-oxo-4,5,6,7-tetrahydropyrazolo[1,5-a]pyrazine-3-carboxamide]
EC50 (SARS-CoV (FFM1 strain); read-out: Median EC50): 0.021 µM
EC90 (SARS-CoV (FFM1 strain); read-out: Median EC90): 0.045 µM
EC50 (HCoV-229E; Human coronavirus 229E, Huh-7, read-out: Median EC50): > 30 µM
EC90 (HCoV-229E; Human coronavirus 229E, Huh-7, read-out: Median EC90): > 30 µM
antiviral activity (in words) (HCoV-229E; […], cell type not given): no activity
Vd (in vivo): 7.9 L/kg
clearance (in vivo): 9 mL/min/kg
half-life (in vivo): 13 h
bioavailability (in vivo; po): > 50%
concentration at 0.05 h (in vivo; iv, 1 mg/kg, average): 555 ng/mL
concentration at 1 h (in vivo; iv, 1 mg/kg, average): 240 ng/mL
concentration at 2 h (in vivo; iv, 1 mg/kg, average): 186 ng/mL
concentration at 4 h (in vivo; iv, 1 mg/kg, average): 83.8 ng/mL
concentration at 7 h (in vivo; iv, 1 mg/kg, average): 47.7 ng/mL
concentration at 24 h (in vivo; iv, 1 mg/kg, average): 19.2 ng/mL
concentration at 12 h (in vivo; iv, 1 mg/kg, average, female hamster, IV 1 mg/kg, 12 h, n=3): 25.1 ng/mL
concentration at 0.05 h (in vivo; iv, 1 mg/kg, individual animal): 558 ng/mL
concentration at 1 h (in vivo; iv, 1 mg/kg, individual animal): 268 ng/mL
concentration at 2 h (in vivo; iv, 1 mg/kg, individual animal): 170 ng/mL
concentration at 4 h (in vivo; iv, 1 mg/kg, individual animal): 75.9 ng/mL
concentration at 7 h (in vivo; iv, 1 mg/kg, individual animal): 45.4 ng/mL
concentration at 12 h (in vivo; iv, 1 mg/kg, individual animal): 26.7 ng/mL
concentration at 24 h (in vivo; iv, 1 mg/kg, individual animal): 20.1 ng/mL
concentration at 0.5 h (in vivo; po, 5 mg/kg, average): 68.1 ng/mL
concentration at 1 h (in vivo; po, 5 mg/kg, average): 114 ng/mL
concentration at 2 h (in vivo; po, 5 mg/kg, average): 220 ng/mL
concentration at 4 h (in vivo; po, 5 mg/kg, average): 264 ng/mL
concentration at 7 h (in vivo; po, 5 mg/kg, average): 176 ng/mL
concentration at 12 h (in vivo; po, 5 mg/kg, average): 129 ng/mL
concentration at 24 h (in vivo; po, 5 mg/kg, average): 82.6 ng/mL
concentration at 0.5 h (in vivo; po, 5 mg/kg, individual animal): 71 ng/mL
concentration at 1 h (in vivo; po, 5 mg/kg, individual animal): 95.4 ng/mL
concentration at 2 h (in vivo; po, 5 mg/kg, individual animal): 230 ng/mL
concentration at 7 h (in vivo; po, 5 mg/kg, individual animal): 142 ng/mL
concentration at 12 h (in vivo; po, 5 mg/kg, individual animal): 89.2 ng/mL
concentration at 12 h (in vivo; po, 5 mg/kg, individual animal, female hamster, PO 5mg/kg, 12 h): 145 ng/mL
concentration at 0.5 h (in vivo; po, 50 mg/kg, average): 801 ng/mL
concentration at 1 h (in vivo; po, 50 mg/kg, average): 1060 ng/mL
concentration at 4 h (in vivo; po, 50 mg/kg, average): 2430 ng/mL
concentration at 7 h (in vivo; po, 50 mg/kg, average): 2080 ng/mL
concentration at 24 h (in vivo; po, 50 mg/kg, average): 655 ng/mL
concentration at 2 h (in vivo; po, 50 mg/kg, average, female hamster, PO 50mg/kg, 2 h, n=3): 1760 ng/mL
concentration at 12 h (in vivo; po, 50 mg/kg, average, female hamster, PO 50mg/kg, 12 h, n=3): 1200 ng/mL
concentration at 0.5 h (in vivo; [2]): 680 ng/mL
concentration at 1 h (in vivo; [2]): 829 ng/mL
concentration at 2 h (in vivo; [2]): 1580 ng/mL
concentration at 4 h (in vivo; [2]): 2230 ng/mL
concentration at 7 h (in vivo; [2]): 1510 ng/mL
concentration at 1 h (in vivo; po, 50 mg/kg, individual animal, female hamster, PO 50mg/kg, 1 h): 1450 ng/mL
EC50 (MERS-CoV): 0.6 µM
compound recovery with M-protein:Fab B complex compared to M protein alone or M-protein:Fab E complex [1]: significantly higher
compound recovery with M protein relative to buffer-only control ([1]; 5 µM M protein): reproducible JNJ-9676 recovery
CC50 at 6 days (in vitro): > 20 µM
EC50 (MHV; read-out: Median EC50): 3.4 µM
EC90 (MHV; read-out: Median EC90): 12.4 µM
EC50 (SARS-CoV-2 (B1 strain)): 0.014 to 0.022 µM
antiviral activity (in words) (HCoV-NL63; HCoV-NL63): no activity
EC50 (HCoV-NL63; Human coronavirus NL63, LLC-MK2, HCoV-NL63 (alphaCoV), N=2, read-out: Median EC50): > 20 µM
EC90 (HCoV-NL63; Human coronavirus NL63, LLC-MK2, HCoV-NL63 (alphaCoV), N=2, read-out: Median EC90): > 20 µM
EC50 (PDCoV; read-out: Median EC50): > 30 µM
EC90 (PDCoV; read-out: Median EC90): > 30 µM
